The subject of series [1] is serum calcium levels. Briefly: Effect of aerosolized 1α,25-dihydroxyvitamin D3 on serum calcium levels. Format: in vivo, Brown Norway rats. Particulars: Formulation A, intratracheal 200 μL doses on Day 0 and Day 2, blood 24 h after last dose. The text has this:
Sprague Dawley and Brown Norway male rats aged 6-7 weeks were obtained from Harlan Sprague-Dawley (Madison, Wis.) and housed in shoebox cages. Animals were provided a purified rodent diet prepared in-house containing 0.47% calcium and 0.3% phosphorus, and water ad libitum. The diet was supplemented with 1.6 IU vitamin D3/g diet. […] Formulation A was an aqueous solution containing 30% propylene glycol and 5% ethanol at pH 7.0. Formulation B was also an aqueous solution further containing 0.4% TWEEN polysorbate 20 [1 mL of solution contains: 4 mg Tween Polysorbate 20, 1.5 mg sodium chloride, 10 mg sodium ascorbate, 7.6 mg sodium phosphate (dibasic), 1.8 mg sodium phosphate (monodibasic) and 1.1 mg disodium […]], pH 7.0. Effectiveness of Aerosol Delivery of Vitamin D to Pulmonary Tree. 1α,25-dihydroxyvitamin D3 effect on serum calcium levels in Brown Norway rats was determined. Delivery of 1α,25-dihydroxyvitamin D3 (i.e., in vivo activity) was measured to determine the effect of aerosolized 1α,25-dihydroxyvitamin D3 treatment on serum calcium levels. Formulation A containing 1α,25-dihydroxyvitamin D3 was intra-tracheally delivered in 200 μL doses on Day 0 (Day 0 was the first day of treatment) and Day 2. […] Calcium levels were determined by atomic absorption spectroscopy of the serum diluted 0.1% lanthum chloride using a Perkin Elmer Model 3110.

Series [2] in a line: Tissue distribution of 1α,25-dihydroxyvitamin D3 after intratracheal (pulmonary) delivery. Format: in vivo, Sprague Dawley rats. The text has this:
Sprague Dawley and Brown Norway male rats aged 6-7 weeks were obtained from Harlan Sprague-Dawley (Madison, Wis.) and housed in shoebox cages. Animals were provided a purified rodent diet prepared in-house containing 0.47% calcium and 0.3% phosphorus, and water ad libitum. The diet was supplemented with 1.6 IU vitamin D3/g diet. […] Formulation A was an aqueous solution containing 30% propylene glycol and 5% ethanol at pH 7.0. Formulation B was also an aqueous solution further containing 0.4% TWEEN polysorbate 20 [1 mL of solution contains: 4 mg Tween Polysorbate 20, 1.5 mg sodium chloride, 10 mg sodium ascorbate, 7.6 mg sodium phosphate (dibasic), 1.8 mg sodium phosphate (monodibasic) and 1.1 mg disodium […]], pH 7.0. Intratracheal delivery of 1α,25-dihydroxyvitamin D3. 5 μCi of 1α,25-dihydroxyvitamin D3 was delivered intratracheally to anesthetized (isoflurane) Sprague Dawley rats by using the MicroSprayerTM Model 1C following the manufacturer's protocol (PennCentury, Philadelphia, Pa). The device included a stainless steel tube measuring 0.64 mm in diameter attached to a high-pressure syringe (Model FMJ-250, PennCentury). An atomizer at the very tip of the tube generated the aerosol plume. The MicroSprayerTM was inserted deep into the trachea allowing delivery of aerosolized compounds into the lungs. 1α,25-dihydroxyvitamin D3 was administered in either 100 μL (Formulation A and Formulation B) or 200 μL (Formulation A) dose volumes. As a quench control, a group of animals were dosed with either Formulation A or Formulation B. Tissue analysis. Using a duration of 4 hours and a duration of 10 minutes after administering the dose, the animals were anesthetized with isoflurane and blood was collected from the heart. The trachea, lungs and stomach were removed, dehydrated in alcohol and pulverized. Samples weighing 20-100 mg were placed in 1 mL Solvable (Packard BioScience B. V., The Netherlands) and incubated at 60° C. overnight. Next, 10 mL of Optima Gold (Perkin Elmer, Boston, Mass.) was added to the samples, and radioactivity was measured using a liquid scintillation analyzer (TRI-CARB 2100 TR, Packard). To determine the presence of 1α,25-dihydroxyvitamin D3 in the blood, 200-300 μL of serum in 10 mL Optima Gold was used for scintillation counting.

The mark [3] stands for this setting: Formulation A, 100 μL dose, after 10 minutes.
[4] abbreviates: Formulation B, 100 μL dose, after 10 minutes.

`C=C1/C(=C\C=C2/CCC[C@]3(C)[C@@H]([C@H](C)CCCC(C)(C)O)CC[C@@H]23)C[C@@H](O)C[C@@H]1O` [1α,25-dihydroxyvitamin D3]: the “increase of serum calcium levels” value in series [1] (1 μg/kgBW) was 2.8 mg/dL. Also, in series [1] (10 μg/kgBW), the “increase of serum calcium levels” value is 4 mg/dL. For the same compound, in series [2] (setting [3]), the “detected 1α,25-dihydroxyvitamin D3 found in the serum” value was 53%; the “detected 1α,25-dihydroxyvitamin D3 found in the stomach” value is about 1%; the “detected 1α,25-dihydroxyvitamin D3 found in the trachea and lungs” value is on record as 46%. In addition, in series [2] (Formulation A, after 4 hours), the “detected 1α,25-dihydroxyvitamin D3 found in the serum” value was determined as 60%; the “detected 1α,25-dihydroxyvitamin D3 found in the stomach” value turned out to be 36%; the “detected 1α,25-dihydroxyvitamin D3 found in the trachea and lungs” value was “Less than 5%”. Also, in series [2] (setting [4]), the “detected 1α,25-dihydroxyvitamin D3 found in the serum” value is reported as 51%; the “detected 1α,25-dihydroxyvitamin D3 found in the stomach” value is “less than 4%”; the “detected 1α,25-dihydroxyvitamin D3 found in the trachea and lungs” value stood at 33%. For the same compound, in series [2] (Formulation B, after 4 hours), the “1α,25-dihydroxyvitamin D3 detected in serum (% of total)” value turned out to be 56% and the “1α,25-dihydroxyvitamin D3 detected in stomach (% of total)” value came to 35%.
